Patent EP0557345B1, “1,3-BIS- 3-(MONO- OR POLY-HYDROXY)ACYLAMINO-5-(MONO- OR POLY-HYDROXYALKYL)AMINOCARBONYL-2,4,6-TRIIODO-BENZOYL-AMINO]-HYDROXY- OR HYDROXYALKYL-PROPANES, THEIR METHODS OF PREPARATION AND X-RAY CONTRAST MEDIA CONTAINING THEM” (DIBRA S.p.A., priority 1990, dated 1992)
Like-named read-outs stand apart in the source and are kept apart here.

How the values were obtained:
Solubility in water = type: physicochemical
[1] = Osmolality of the solution; type: physicochemical; conditions: 37°C, 300 mgI/ml
[2] = Viscosity of the solution; type: physicochemical; conditions: 37°C, 300 mgI/ml
[3] = Plasma kinetics after intravenous administration in rats; type: in vivo; conditions: rat, 200 mgI/kg; for half-life: iv
Procedure: The apparent volume of distribution is 123.5 ml/kg showing that the product is distributed in plasma and the extracellular spaces.

[4] = Elimination through urine and bile after administration; type: in vivo, rats; conditions: after 7 hours from the administration
Procedure: Elimination occurs mainly through urinary pathway and in less extent through the bile. After 7 hours from the administration, 76.7% of the administered dose was found in the urine and 3.5% in the bile.

mice = experiment: Acute toxicity, intravenous administration in mice; type: in vivo; conditions: 14 days of observation
rats = experiment: Acute toxicity, intracisternal administration in rats; type: in vivo; conditions: 7 days of observation

CN(CC(O)CN(C)C(=O)c1c(I)c(NC(=O)CO)c(I)c(C(=O)NC(CO)C(O)CO)c1I)C(=O)c1c(I)c(NC(=O)CO)c(I)c(C(=O)NC(CO)C(O)CO)c1I (stereo not shown) [Example 16, 1,3-bis-[N-methyl-N-[3-hydroxyacetylamino-5-(1,3,4-trihydroxy-2-butyl)aminocarbonyl-2,4,6-triiodo-benzoyl]-amino]-2-hydroxy-propane]
Solubility in H₂O (Solubility in water; at 20°C): 100 % w/v

C[C@H](O)C(=O)Nc1c(I)c(C(=O)NCC(O)CNC(=O)c2c(I)c(NC(=O)CO)c(I)c(C(=O)NCC(O)CO)c2I)c(I)c(C(=O)NC(CO)CO)c1I (stereo partly drawn) [Example 10, 1-[3-(L-2-hydroxy-propionyl)amino-5-(1,3-dihydroxyisopropyl)aminocarbonyl-2,4,6-triiodo-benzoyl-amino]-3-[3-hydroxyacetylamino-5-(2,3-dihydroxy-propyl)aminocarbonyl-2,4,6-triiodo-benzoyl-amino]-2-hydroxy-propane]
Osmolality [1]: 131 mosm/kg H₂O | Viscosity [2]: 8.6 mPa·s

C[C@H](O)C(=O)Nc1c(I)c(C(=O)NCC(O)CNC(=O)c2c(I)c(NC(=O)[C@H](C)O)c(I)c(C(=O)NC(CO)C(O)CO)c2I)c(I)c(C(=O)NC(CO)C(O)CO)c1I (stereo partly drawn) [Example 4, 1,3-bis-[3-(L-2-hydroxy-propionyl)amino-5-(1,3,4-tri-hydroxy-2-butyl)aminocarbonyl-2,4,6-triiodo-benzoyl-amino]-2-hydroxy-propane]
Solubility in H₂O (Solubility in water; at 20°C): 100 % w/v

C[C@H](O)C(=O)Nc1c(I)c(C(=O)NCC(O)CO)c(I)c(C(=O)N(C)CC(O)CN(C)C(=O)c2c(I)c(NC(=O)[C@H](C)O)c(I)c(C(=O)NCC(O)CO)c2I)c1I (stereo partly drawn) [Example 8, 1,3-bis-[N-methyl-N-[3-(L-2-hydroxy-propionyl)amino-5-(2,3-dihydroxy-propyl)aminocarbonyl-2,4,6-triiodobenzoyl]amino]-2-hydroxy-propane]
Solubility in H₂O (Solubility in water; at 20°C): > 100 % w/v

CC(=O)N(CC(O)CN(C(C)=O)c1c(I)c(C(=O)NCC(O)CO)c(I)c(C(=O)NCC(O)CO)c1I)c1c(I)c(C(=O)NCC(O)CO)c(I)c(C(=O)NCC(O)CO)c1I (stereo not shown) [C, 1,3-bis-[N-[3,5-bis-(2,3-dihydroxy-propyl)aminocarbonyl-2,4,6-triiodo-phenyl]-acetylamino]-2-hydroxy-propane, reference compound]
Osmolality [1]: 196 mosm/kg H₂O | Viscosity [2]: 8.7 mPa·s

C[C@H](O)C(=O)Nc1c(I)c(C(=O)NCC(O)CNC(=O)c2c(I)c(NC(=O)CO)c(I)c(C(=O)NC(CO)C(O)CO)c2I)c(I)c(C(=O)NC(CO)CO)c1I (stereo partly drawn) [Example 11, 1-[3-hydroxyacetylamino-5-(1,3,4-trihydroxy-2-butyl)aminocarbonyl-2,4,6-triiodo-benzoyl-amino]-3-[3-(L-2-hydroxy-propionyl)amino-5-(1,3-dihydroxy-isopropyl)aminocarbonyl-2,4,6-triiodo-benzoyl-amino]-2-hydroxypropane]
Solubility in H₂O (Solubility in water; at 25°C): > 100 % w/v

C[C@H](O)C(=O)Nc1c(I)c(C(=O)NCC(O)CNC(=O)c2c(I)c(NC(=O)[C@H](C)O)c(I)c(C(=O)NC(CO)CO)c2I)c(I)c(C(=O)NC(CO)CO)c1I [Example 1, 1,3-bis-[3-(L-2-hydroxy-propionyl)amino-5-(1,3-dihydroxy-isopropyl)-aminocarbonyl-2,4,6-triiodo-benzoyl-amino]-2-hydroxy-propane]
Vd ([3]; read-out: apparent volume of distribution): 0.123 L/kg | clearance ([3]; read-out: total clearance): 7.9 mL/min/kg | half-life ([3]; read-out: half life for the distribution phase): 2.9 min | half-life ([3]; read-out: half life for the elimination phase): 22.9 min | administered dose found in the bile [4]: 3.5% | administered dose found in the urine [4]: 76.7% | LD₅₀ C.L. 95% (mice): > 15000 mgI/kg | LD₅₀ C.L. 95% (rats): >900 mgI/kg | Osmolality [1]: 141 mosm/kg H₂O | Viscosity [2]: 8.5 mPa·s

O=C(CO)Nc1c(I)c(C(=O)NCC(O)CNC(=O)c2c(I)c(NC(=O)CO)c(I)c(C(=O)NC(CO)C(O)CO)c2I)c(I)c(C(=O)NC(CO)C(O)CO)c1I (stereo not shown) [Example 15, 1,3-bis-[3-hydroxyacetylamino-5-(1,3,4-trihydroxy-2-butyl)aminocarbonyl-2,4,6-triiodo-benzoyl-amino]-2-hydroxy-propane]
Solubility in H₂O (Solubility in water; at 20°C): 100 % w/v
